Measured values published in patent US10022389B2, “Prophylactic or therapeutic drug for constipation” (TAISHO PHARMACEUTICAL CO., LTD., priority 2013, dated 2018).

Experiments:
Format in all cases: in vivo, SD/IGS rats
[1] = Test 3: percentage of compound (I) remaining unaltered in rat's digestive tract; conditions: 1 mg/kg oral; for Remaining unaltered, cecum/large intestine (including the contents), relative to dose / Remaining unaltered, small intestine's contents, relative to dose / Remaining unaltered, small intestine, relative to dose / Remaining unaltered, total, relative to dose: average of 4 cases ± S.D.
Description: Test 3: Percentage of Compound (I) Remaining Unaltered in Rat's Digestive Tract
Seven-week old SD/IGS rats (CHARLES RIVER LABORATORIES JAPAN, INC.; male; fasted) were orally administered compound (I) (1 mg/kg) formulated with an aqueous solution of 0.5% CMC-Na (carboxymethylcellulose sodium salt). One, four and seven hours after the drug administration, the rats were euthanized under anesthetization with ether and their small intestine, cecum, and large intestine were removed. The contents of the small intestine were recovered by infusing the small intestine with 20 mL of physiological saline. After washing the tissue's surface with physiological saline, the tissues and the recovered contents were measured for their weight and homogenized under cooling with ice in the presence of added 4 volumes of purified water. The homogenate was deproteinated in the presence of an added acetonitrile/methanol solution containing an internal standard and, thereafter, the supernatant was analyzed by LC-MS/MS (Applied Biosystems: API3000). Drug-derived ions were detected by selected reaction monitoring based on electrospray ionization in a positive ion mode. From peak areas in the resulting extracted ion chromatogram, drug concentrations in the homogenate were calculated by the internal standard method.
The internal standard here used was compound 11 disclosed in WO2007/136116.

[2] = system: rats with loperamide-induced constipation; assay: Test 2: ameliorating effect on loperamide-induced constipation; conditions: loperamide (5 mg/kg p.o.) constipation model rats, oral in 0.5% MC
Description: Test 2: Ameriolating Effect on Loperamide-Induced Constipation
The effects on constipation as induced by loperamide which suppresses the propulsion of the digestive tract's contents and the secretion of intestinal juice were investigated.
SD/IGS rats (6-wk old; CHARLES RIVER LABORATORIES JAPAN, INC.) in groups, each consisting of one head per cage, were kept in a day-and-night reversal room for 11 days. The rats were fasted for about 16 hours and orally administered 0.5% MC suspended loperamide at a dose of 5 mg/5 mL/kg body weight to prepare constipation models. The normal group was orally administered on 0.5% MC only. […] Immediately after the administration of compound (I), 5 g of a standard diet (MF diet; ORIENTAL YEAST CO., LTD.) was applied and thereafter, a stool recovery tray was placed under each cage and starting 2 hours after the administration, stools were recovered every two hours until after 12 hours; the appearance of the recovered stools was observed and their weight was measured. To determine their moisture content, the stools were measured for their wet weight, dried for at least 8 hours at 100° C., measured for dry weight, and its proportion (%) to the wet weight was calculated. […]

[3] = system: rats with constipation induced by low-fiber diet; assay: Test 1: ameliorating effect on constipation models fed on low-fiber diet; conditions: low-fiber diet constipation model rats, oral in 0.5% MC, dosed twice (0 and 8 h)
Description: Test 1: Ameliorating Effect on Constipation Models Fed on Low-Fiber Diet
SD/IGS rats (6-wk old; CHARLES RIVER LABORATORIES JAPAN, INC.) in groups, each consisting of two heads per cage, were fed on a diet with a decreased dietary fiber content of 5% for a week in order to induce constipation. The normal group was fed on a standard diet with 15% dietary fiber (MF diet; ORIENTAL YEAST CO., LTD.) On the day before the test, each rat was measured for body weight and thereafter transferred into an individual cage. Grouping was performed on the basis of the body weights measured on the day before the test. The experimental groups of rats with induced constipation were orally administered compound (I) in a volume of 5 mL/kg body weight as dissolved in 0.5% (w/v) methylcellulose (MC), whereas the control vehicle group was orally administered 0.5% MC only. […] Immediately after the first administration, a stool recovery tray was placed under each cage and starting 2 hours after the administration, stools were recovered every two hours until 24 hours after the administration; the appearance of the recovered stools was observed and their weight was measured. To determine their moisture content, the stools were measured for their wet weight, dried for at least 8 hours at 100° C., measured for dry weight, and its proportion (%) to the wet weight was calculated. […]

Compound: COc1cc(C(C)C)c(Cc2ccc(/C=C/C(C)(C)C(=O)NC(C)(C)C(=O)NCCN(C)C)cc2)cc1[C@@H]1O[C@H](CO)[C@@H](O)[C@H](O)[C@H]1O [Compound (I), (1S)-1,5-anhydro-1-[5-(4-{(1E)-4-[(1-{[2-(dimethylamino)ethyl]amino}-2-methyl-1-oxopropan-2-yl)amino]-3,3-dimethyl-4-oxobut-1-en-1-yl}benzyl)-2-methoxy-4-(propan-2-yl)phenyl]-D-glucitol]
- dose remaining unaltered in the small intestine and its contents ([1]; 1 hour after drug administration): about 75%
- Remaining unaltered, cecum/large intestine (including the contents), relative to dose ([1]; 1 hr after dosing): 0.2 ± 0.3 % of dose
- Remaining unaltered, small intestine's contents, relative to dose ([1]; 1 hr after dosing): 70.3 ± 6.7 % of dose
- Remaining unaltered, small intestine, relative to dose ([1]; 1 hr after dosing): 4.9 ± 0.6 % of dose
- Remaining unaltered, total, relative to dose ([1]; 1 hr after dosing): 75.4 ± 6.3 % of dose
- dose remaining unaltered in the small intestine and its contents ([1]; 4 hours after drug administration): about 75%
- Remaining unaltered, cecum/large intestine (including the contents), relative to dose ([1]; 4 hr after dosing): 33.1 ± 44.5 % of dose
- Remaining unaltered, small intestine's contents, relative to dose ([1]; 4 hr after dosing): 69.7 ± 44.9 % of dose
- Remaining unaltered, small intestine, relative to dose ([1]; 4 hr after dosing): 6.4 ± 5.3 % of dose
- Remaining unaltered, total, relative to dose ([1]; 4 hr after dosing): 109.2 ± 10.7 % of dose
- Remaining unaltered, cecum/large intestine (including the contents), relative to dose ([1]; 7 hr after dosing): 84.2 ± 8.8 % of dose
- Remaining unaltered, small intestine's contents, relative to dose ([1]; 7 hr after dosing): 1.6 ± 1.2 % of dose
- Remaining unaltered, small intestine, relative to dose ([1]; 7 hr after dosing): 0.7 ± 0.3 % of dose
- Remaining unaltered, total, relative to dose ([1]; 7 hr after dosing): 86.5 ± 9.2 % of dose
- wet weight of stools ([2]; stools recovered until 12 hours (FIG. 3)): increased
- moisture content of stools ([2]; stools recovered until 12 hours (FIG. 4)): increased
- wet weight of stools ([3]; stools recovered until 24 hours (FIG. 1)): increased
- moisture content of stools ([3]; stools recovered until 24 hours (FIG. 2)): increased
